Holding throughout (format): biochemical
One experiment concerns the target BTK (Homo sapiens (Human), UniProt Q06187). Description: IC50 against BTK.
The next experiment deals with JAK3 (Homo sapiens (Human), UniProt P52333). Description: IC50 against JAK3.
Another experiment deals with TXK (Homo sapiens (Human), UniProt P42681). Put plainly: IC50 against TXK. The conditions noted are these: for TXK/ITK: ratio of TXK IC50 to ITK IC50.
The next experiment deals with ITK (Homo sapiens (Human), UniProt Q08881). Description: IC50 against ITK.
Chain of ITK (Q08881 whole entry): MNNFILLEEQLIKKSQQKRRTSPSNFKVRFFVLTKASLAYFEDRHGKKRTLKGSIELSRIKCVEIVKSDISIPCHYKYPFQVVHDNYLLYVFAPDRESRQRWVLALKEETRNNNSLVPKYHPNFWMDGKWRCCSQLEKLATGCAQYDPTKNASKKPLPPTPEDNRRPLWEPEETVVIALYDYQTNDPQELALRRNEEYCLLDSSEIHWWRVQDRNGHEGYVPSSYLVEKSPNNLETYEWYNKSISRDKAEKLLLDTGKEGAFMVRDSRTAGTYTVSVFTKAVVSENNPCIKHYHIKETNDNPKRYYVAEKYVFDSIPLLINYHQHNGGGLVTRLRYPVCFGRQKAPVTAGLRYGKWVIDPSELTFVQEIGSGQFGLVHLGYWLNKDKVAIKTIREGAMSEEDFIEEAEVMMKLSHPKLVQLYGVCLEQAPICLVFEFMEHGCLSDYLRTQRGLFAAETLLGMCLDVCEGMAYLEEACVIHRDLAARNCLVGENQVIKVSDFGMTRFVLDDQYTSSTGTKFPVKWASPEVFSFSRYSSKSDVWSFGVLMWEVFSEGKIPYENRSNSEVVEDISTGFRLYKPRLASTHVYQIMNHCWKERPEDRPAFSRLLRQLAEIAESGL

Chain of BTK (Q06187 whole entry, species assumed): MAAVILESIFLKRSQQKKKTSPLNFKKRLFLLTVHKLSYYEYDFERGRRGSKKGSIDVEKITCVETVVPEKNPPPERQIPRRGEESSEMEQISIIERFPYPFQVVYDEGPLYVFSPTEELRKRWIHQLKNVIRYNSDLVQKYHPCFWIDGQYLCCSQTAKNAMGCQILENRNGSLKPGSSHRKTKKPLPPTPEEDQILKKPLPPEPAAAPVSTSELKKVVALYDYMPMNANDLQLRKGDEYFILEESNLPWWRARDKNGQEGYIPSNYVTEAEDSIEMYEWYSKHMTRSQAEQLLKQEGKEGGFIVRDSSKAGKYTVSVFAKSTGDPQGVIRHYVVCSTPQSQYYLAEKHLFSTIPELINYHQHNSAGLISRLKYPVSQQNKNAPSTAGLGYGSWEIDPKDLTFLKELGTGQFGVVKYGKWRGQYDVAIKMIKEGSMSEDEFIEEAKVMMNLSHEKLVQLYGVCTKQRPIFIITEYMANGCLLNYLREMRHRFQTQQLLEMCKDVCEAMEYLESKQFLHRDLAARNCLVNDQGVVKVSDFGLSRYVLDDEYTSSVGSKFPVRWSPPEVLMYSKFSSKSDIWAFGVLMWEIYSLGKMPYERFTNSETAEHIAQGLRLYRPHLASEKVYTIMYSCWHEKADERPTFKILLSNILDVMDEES
Chain of TXK (P42681 whole entry, species assumed): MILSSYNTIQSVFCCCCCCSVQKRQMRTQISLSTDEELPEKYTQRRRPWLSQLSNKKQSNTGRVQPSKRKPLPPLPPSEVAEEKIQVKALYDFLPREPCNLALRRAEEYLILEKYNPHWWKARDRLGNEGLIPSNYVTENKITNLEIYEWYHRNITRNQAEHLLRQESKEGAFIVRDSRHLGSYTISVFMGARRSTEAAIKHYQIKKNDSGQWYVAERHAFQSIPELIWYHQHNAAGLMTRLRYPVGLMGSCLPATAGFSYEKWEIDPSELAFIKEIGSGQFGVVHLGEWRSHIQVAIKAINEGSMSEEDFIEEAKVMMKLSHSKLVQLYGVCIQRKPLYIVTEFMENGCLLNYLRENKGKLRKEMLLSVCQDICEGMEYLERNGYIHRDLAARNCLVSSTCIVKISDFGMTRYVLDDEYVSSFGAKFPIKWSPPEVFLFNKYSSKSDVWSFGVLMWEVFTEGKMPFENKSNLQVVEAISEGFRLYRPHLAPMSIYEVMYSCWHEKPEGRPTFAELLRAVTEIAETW
Chain of JAK3 (P52333 whole entry, species assumed): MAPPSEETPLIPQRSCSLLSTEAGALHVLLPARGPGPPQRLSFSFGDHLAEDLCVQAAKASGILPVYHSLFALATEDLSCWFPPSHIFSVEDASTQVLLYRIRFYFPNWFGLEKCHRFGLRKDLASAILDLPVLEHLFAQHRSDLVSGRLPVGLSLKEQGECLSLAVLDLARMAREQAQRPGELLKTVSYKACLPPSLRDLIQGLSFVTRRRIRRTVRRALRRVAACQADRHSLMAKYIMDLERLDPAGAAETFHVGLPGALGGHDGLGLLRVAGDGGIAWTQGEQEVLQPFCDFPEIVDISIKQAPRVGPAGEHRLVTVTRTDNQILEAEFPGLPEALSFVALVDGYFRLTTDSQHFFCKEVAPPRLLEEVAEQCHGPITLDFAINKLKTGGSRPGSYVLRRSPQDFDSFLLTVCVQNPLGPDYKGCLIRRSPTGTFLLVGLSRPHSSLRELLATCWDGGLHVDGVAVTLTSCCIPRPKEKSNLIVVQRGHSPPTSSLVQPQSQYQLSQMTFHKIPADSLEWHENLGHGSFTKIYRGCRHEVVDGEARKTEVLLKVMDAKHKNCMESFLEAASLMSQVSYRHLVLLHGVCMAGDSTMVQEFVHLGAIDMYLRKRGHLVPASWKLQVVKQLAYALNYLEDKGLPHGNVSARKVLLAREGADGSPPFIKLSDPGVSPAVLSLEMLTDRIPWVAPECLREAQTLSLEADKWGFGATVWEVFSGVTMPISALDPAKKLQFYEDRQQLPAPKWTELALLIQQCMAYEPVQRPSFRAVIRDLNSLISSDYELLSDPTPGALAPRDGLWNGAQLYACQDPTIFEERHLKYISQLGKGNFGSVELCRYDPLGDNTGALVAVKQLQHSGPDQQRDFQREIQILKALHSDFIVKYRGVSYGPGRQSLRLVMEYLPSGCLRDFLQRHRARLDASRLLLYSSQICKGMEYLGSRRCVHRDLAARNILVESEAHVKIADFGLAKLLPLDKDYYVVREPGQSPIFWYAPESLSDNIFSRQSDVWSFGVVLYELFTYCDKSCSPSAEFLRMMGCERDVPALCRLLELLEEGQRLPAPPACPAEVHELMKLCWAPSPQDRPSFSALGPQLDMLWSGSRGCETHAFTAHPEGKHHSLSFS

In general, IC50 refers to the concentration that gives 50% inhibition. Read a low IC50 as inhibition by little substance. Consider `C=CC(=O)N1CCCN(C(=O)c2cc(Sc3cnc(NC(=O)c4cccc(CN(C)C)c4)s3)c(C)cc2OC)C[C@H]1C` [Compound 48], for which the IC50 on BTK is 1000 to 10000 nM; on JAK3, not below 10000 nM; on TXK, not below 10000 nM; at ITK it was 10 to 100 nM. Also, the TXK/ITK at TXK was found to be 519.55.

Regarding `C=CC(=O)N1CCN(C(=O)c2cc(Sc3cnc(NC(=O)C4CC4)s3)c(Cl)cc2C)CC1` [Compound 80], the IC50 against BTK is 100 to 1000 nM; against JAK3, 10 to 100 nM; on TXK it was 10 to 100 nM; at ITK, less than 10 nM. The TXK/ITK on TXK amounted to 8.1619.

In the case of `C=CC(=O)N1CCN(C(=O)c2cc(Sc3cnc(NC(=O)c4cccnc4)s3)c(C)cc2OC)CC1` [Compound 89], the IC50 against BTK is 100 to 1000 nM; on JAK3 it was 1000 to 10000 nM; against TXK it was 100 to 1000 nM; against ITK it was less than 10 nM. Further, at TXK, the TXK/ITK is 45.743.

For the compound `C=CC(=O)N1CCCN(C(=O)c2cc(Sc3cnc(NC(=O)C4CC4)s3)c(C)cc2Cl)C[C@H]1C` [Compound 61], the IC50 against BTK is not below 10000 nM; against JAK3, 1000 to 10000 nM; against TXK it was 100 to 1000 nM; against ITK, 10 to 100 nM. In addition, the TXK/ITK on TXK was found to be 50.716.

As to `C=CC(=O)N1CCN(C(=O)c2cc(Sc3cnc(NC(=O)C4CC4)s3)c(C)cc2OC)C(C)(C)C1` [Compound 15], the IC50 is less than 10 nM against BTK, 10 to 100 nM at JAK3, less than 10 nM against TXK and less than 10 nM at ITK. Further, the TXK/ITK on TXK is on record as 1.1111.

With `C=CC(=O)N1CCN(C(=O)c2cc(Sc3cnc(NC(=O)c4ccn(C)c4)s3)c(C)cc2OC)C[C@H]1CC` [Compound 132], the 50% inhibitory concentration (IC50) against BTK is 100 to 1000 nM; against JAK3 it was 100 to 1000 nM; at TXK, 10 to 100 nM; against ITK, less than 10 nM.

With `C=CC(=O)N1CCN(C(=O)c2cc(Sc3cnc(NC(=O)c4cccc(CN(C)C)c4)s3)c(C)cc2OC)CC(F)C1` (stereo not shown) [Compound 66], the concentration for half-maximal inhibition (IC50) at BTK is 100 to 1000 nM; against JAK3 it was 100 to 1000 nM; on TXK, 100 to 1000 nM; on ITK, less than 10 nM. Further, the TXK/ITK at TXK is listed as 70.047.

Take `C=CC(=O)N1CCN(C(=O)c2cc(Sc3cnc(NC(=O)C4CC4)s3)c(C)cc2C)C[C@H]1CC` [Compound 100]: the IC50 against BTK was 1000 to 10000 nM; against JAK3, 100 to 1000 nM; against TXK, 10 to 100 nM; at ITK it was less than 10 nM. For the same compound, the TXK/ITK on TXK is 8.8107.

In the case of `C=CC(=O)N1CCN(C(=O)c2cc(Sc3cnc(NC(=O)c4cccc(CN(C)C)c4)s3)c(C)cc2C)C[C@H]1C#N` [Compound 125], the IC50 against BTK is 10 to 100 nM; against JAK3, less than 10 nM; on TXK it was less than 10 nM; against ITK it was less than 10 nM. The TXK/ITK on TXK was 2.3.

As for `C=CC(=O)N1CCCN(C(=O)c2cc(Sc3cnc(Nc4ncccc4C)s3)c(C)cc2OC)C[C@H]1C` [Compound 136], the 50% inhibitory concentration (IC50) at BTK is 10 to 100 nM; against JAK3, 100 to 1000 nM; on TXK, 10 to 100 nM; at ITK it was less than 10 nM. Besides, the TXK/ITK at TXK is recorded as 42.

As for `C=CC(=O)N1CCN(C(=O)c2cc(Sc3cnc(NC(=O)C4CC4)s3)ccc2OC)CC1` [Compound 78], the 50% inhibitory concentration (IC50) at BTK is 100 to 1000 nM; against JAK3, 100 to 1000 nM; against TXK, 10 to 100 nM; on ITK, less than 10 nM. In addition, the TXK/ITK on TXK is reported as 10.586.

With `C=CC(=O)N1CCN(C(=O)c2cc(Sc3cnc(NC(=O)C4CC4)s3)c(C)cc2OC)CC1(C)C` [Compound 16], the IC50 lay in the range of 100 to 1000 nM at BTK, 100 to 1000 nM at JAK3, 10 to 100 nM at TXK and 10 to 100 nM against ITK. Moreover, on TXK, the TXK/ITK turned out to be 4.9287.

For the compound `C=CC(=O)N1CCN(C(=O)c2cc(Sc3cnc(NC(=O)C4CC4)s3)c(Cl)cc2C)C[C@H]1C` [Compound 81], the IC50 is 1000 to 10000 nM against BTK, 100 to 1000 nM against JAK3, 100 to 1000 nM on TXK and less than 10 nM at ITK. Also, on TXK, the TXK/ITK came to 19.042.

As for `C=CC(=O)N1CCN(C(=O)c2cc(Sc3cnc(NC(=O)C4CC4)s3)c(C)cc2OC)C[C@H]1C#N` [Compound 43], the half-maximal inhibitory concentration (IC50) against BTK was 10 to 100 nM; against JAK3, 10 to 100 nM; against TXK, less than 10 nM; at ITK, less than 10 nM. For the same compound, the TXK/ITK at TXK is on record as 3.4821.

Consider `C=CC(=O)N1CCC2(C1)CN(C(=O)c1cc(Sc3cnc(Nc4ccccn4)s3)c(C)cc1OC)C2` [Compound 152, 1-(2-(2-methoxy-4-methyl-5-((2-(pyridin-2-ylamino)thiazol-5-yl)thio)benzoyl)-2,6-diazaspiro[3.4]octan-6-yl)prop-2-en-1-one], for which the IC50 on BTK was 10 to 100 nM; against JAK3, 100 to 1000 nM; against TXK it was less than 10 nM; against ITK, less than 10 nM. Further, the TXK/ITK at TXK came to 2.06.

For `C=CC(=O)N1CCN(C(=O)c2cc(Sc3cnc(NC(=O)C4CC4)s3)c(C)cc2OC)[C@@H](C)C1` [Compound 19], the IC50 was 10 to 100 nM against BTK, 100 to 1000 nM at JAK3, less than 10 nM against TXK and less than 10 nM on ITK. Besides, the TXK/ITK on TXK turned out to be 6.5873.

As for `C=CC(=O)N1CCN(C(=O)c2cc(Sc3cnc(NC(=O)C4CC4)s3)c(C)cc2OC)CC[C@H]1C` [Compound 54], the IC50 at BTK lay within 1000 to 10000 nM; at JAK3 it was 1000 to 10000 nM; on TXK it was 10 to 100 nM; on ITK it was 10 to 100 nM. In addition, at TXK, the TXK/ITK came to 0.804.

In the case of `C=CC(=O)N1CCN(C(=O)c2cc(Sc3cnc(NC(=O)C4CC4)s3)c(C)cc2C(F)(F)F)C[C@H]1C` [Compound 69], the IC50 on BTK is not below 10000 nM; on JAK3, 1000 to 10000 nM; at TXK, 100 to 1000 nM; at ITK, 100 to 1000 nM. For the same compound, at TXK, the TXK/ITK was determined as 4.9369.

For the compound `C=CC(=O)N1CCN(C(=O)c2cc(Sc3cnc(NC(=O)c4ccc(N5CCN(C(=O)CCOCCOCCOCCOCCNC(=O)CCCCC6SCC7NC(=O)NC76)CC5)cc4)s3)c(C)cc2OC)CC1` (stereo not shown) [Compound 41], the IC50 was 10 to 100 nM on BTK, 10 to 100 nM on JAK3, 10 to 100 nM against TXK and less than 10 nM at ITK. For the same compound, the TXK/ITK on TXK amounted to 21.91.

With `COc1cc(C)c(Sc2cnc(NC(=O)C3CC3)s2)cc1C(=O)N1CCCN(C(=O)/C=C/CN(C)C)[C@H](C)C1` [Compound 94], the IC50 on BTK was not below 10000 nM; against JAK3 it was not below 10000 nM; on TXK it was not below 10000 nM; against ITK, 100 to 1000 nM. The TXK/ITK on TXK is listed as 61.81.

Consider `C=CC(=O)N1CCN(C(=O)c2cc(Sc3cnc(NC(=O)c4cnsc4)s3)c(C)cc2C)C[C@H]1CC` [Compound 131], for which the IC50 is 100 to 1000 nM on BTK, 100 to 1000 nM against JAK3, 10 to 100 nM against TXK and less than 10 nM at ITK. For the same compound, the TXK/ITK on TXK stood at 11.0.

With `C=CC(=O)N1CCN(C(=O)c2cc(Sc3cnc(NC(C)=O)s3)c(C)cc2OC)CC1(C)C` [Compound 6], the IC50 at BTK fell in the range of 1000 to 10000 nM; on JAK3 it was 1000 to 10000 nM; on TXK, 100 to 1000 nM; against ITK, 10 to 100 nM. Also, the TXK/ITK at TXK came to 5.9566.

`C=CC(=O)N1CCCN(C(=O)c2cc(Sc3cnc(NC(=O)C4CC4)s3)c(C)cc2C)CC1` [Compound 74]: the IC50 is 100 to 1000 nM at BTK, 100 to 1000 nM on JAK3, 100 to 1000 nM at TXK and less than 10 nM at ITK. In addition, the TXK/ITK at TXK was 16.033.

With `C=CC(=O)N1CCN(C(=O)c2cc(Sc3cnc(NC(=O)c4cocn4)s3)c(C)cc2OC)CC1` [Compound 92], the IC50 against BTK was 100 to 1000 nM; on JAK3, 100 to 1000 nM; at TXK, 100 to 1000 nM; at ITK it was less than 10 nM. Also, the TXK/ITK at TXK stood at 19.123.

Regarding `C=CC(=O)N1C[C@H]2CC[C@@H](C1)N2C(=O)c1cc(Sc2cnc(NC(C)=O)s2)c(C)cc1OC` [Compound 7], the half-maximal inhibitory concentration (IC50) is 10 to 100 nM on BTK, 10 to 100 nM against JAK3, 10 to 100 nM against TXK and less than 10 nM against ITK. For the same compound, on TXK, the TXK/ITK turned out to be 11.993.

Turning to `C=CC(=O)N1CCN(C(=O)c2cc(Sc3cnc(NC(=O)c4cccc(CN(C)C)c4)s3)c(C)cc2OC)C[C@H]1CC` [Compound 117], the IC50 at BTK is 100 to 1000 nM; at JAK3, 1000 to 10000 nM; against TXK, 10 to 100 nM; against ITK, less than 10 nM. The TXK/ITK on TXK is listed as 65.5.

Turning to `C=CC(=O)N1CC[C@@H](N(C)C(=O)c2cc(Sc3cnc(Nc4ccccn4)s3)c(C)cc2OC)C1` [Compound 154, (R)-N-(1-acryloylpyrrolidin-3-yl)-2-methoxy-N,4-dimethyl-5-((2-(pyridin-2-ylamino)thiazol-5-yl)thio)benzamide], the IC50 against BTK, against JAK3, on TXK and at ITK was less than 10 nM throughout. In addition, at TXK, the TXK/ITK was determined as 1.01.

In the case of `C=CC(=O)N1CCN(C(=O)c2cc(Sc3cnc(NC(C)=O)s3)c(C)cc2C)C[C@H]1C#N` [Compound 119], the IC50 was 10 to 100 nM at BTK, less than 10 nM at JAK3, less than 10 nM against TXK and less than 10 nM against ITK. The TXK/ITK on TXK is given as 3.2.

For the compound `C=CC(=O)N1CCCN(C(=O)c2cc(Sc3cnc(NC(=O)C4CC4)s3)c(C)cc2OC)C[C@@H]1C` [Compound 71], the IC50 on BTK fell in the range of 1000 to 10000 nM; at JAK3, 1000 to 10000 nM; on TXK, 100 to 1000 nM.

Turning to `C=CC(=O)N1CCN(C(=O)c2cc(Sc3cnc(NC(=O)C4CC4)s3)c(C)cc2C)C[C@H]1C` [Compound 75], the results for the IC50 at JAK3, against TXK and at ITK were 100 to 1000 nM, 10 to 100 nM and less than 10 nM, respectively.

`C=CC(=O)N1C[C@H]2CN(C(=O)c3cc(Sc4cnc(NC(=O)C5CC5)s4)c(C)cc3OC)C[C@H]21` [Compound 52]: the IC50 was 1000 to 10000 nM against JAK3, 10 to 100 nM against TXK and less than 10 nM against ITK.
